Data set [1] concerns human alveolar epithelial cell line A549. The data set can be described thus: Acute cytotoxicity, MTS reduction, A549. The data set is classed as cell-based. The settings on record: A549, 48 h; for cell damage (viability, MTS reduction): concentrations as high as 400 µM; for concentration producing acute toxicity: MTS. How it is done:
The human alveolar epithelial cell line A549 (ATCC: CCL-185) was grown in Roswell Park Memorial Institute (RPMI-1640) medium (Sigma-Aldrich) supplemented with 10 % FCS (Lonza), 2 mM L-glutamine (Gibco), 50 µg/mL penicillin (Gibco), 50 µg/mL streptomycin (Gibco), and 100 µg/mL neomycin (Gibco) at 37 °C in a humidified atmosphere containing 5 % CO2 (hereafter referred to as complete cell culture medium and standard growth conditions, respectively). Cells were subcultured at approximately 80–90 % confluency using 0.5 % trypsin–EDTA (Sigma-Aldrich). For viability assessment, 1.5 × 10^4 cells per well were seeded in 200 µL complete cell culture medium in a 96-well plate and grown overnight under standard growth conditions, after which the cells were treated for 48 h with 200 µL standard growth medium per well containing increasing concentrations of the flame retardants or positive control agent CdSO4. CellTiter96® AQueous One Solution (Promega) containing MTS (3-(4,5-dimethylthiazol-2-yl)-5-(3-carboxymethoxy-phenyl)-2-(4-sulfophenyl)-2H) as a water-soluble tetrazolium compound was used according to the manufacturer’s protocol. Absorption was detected at 490 nm.

Data set [2] has as its system human neural crest cells. The data set can be described thus: Neural crest cell (NCC) migration assay. It is filed as cell-based. The settings on record: for cell migration / cell viability / concentration range in which migration was far more affected than cell viability: NCC, 24 h. As for the experimental part:
Human embryogenic stem cells (H9 hESC line; Wisconsin International Stem Cell Bank, Madison, WI, USA) were plated on a confluent layer of mitomycin C-treated murine bone marrow-derived stromal MS5 cells and differentiated as previously described (Lee et al. [2010]; Zimmer et al. [2012]). After 21 days, rosettes were picked and plated onto poly-L-ornithine/laminin/fibronectin-coated plates in N2 medium. After 7 days, cells were FACS-sorted for positive expression of the neural crest marker human natural killer-1 (HNK-1) and expanded in N2 medium supplemented with epidermal growth factor (EGF, 20 ng/mL) and fibroblast growth factor (FGF2, 20 ng/mL). For expansion, the cells were passaged every 6 days using accutase (PAA, Pasching, Austria) to detach the cells. After 30 days of expansion, the cells were cryopreserved in 90 % fetal bovine serum, 10 % DMSO. For the analysis of neural crest cell migration, silicone stoppers (Platypus Technologies, Madison, WI, USA) were inserted in a 96-well plate coated with poly-L-ornithine/laminin/fibronectin. Freshly thawed NCCs were seeded at a density of 100,000 cells/cm^2 in N2 medium containing EGF and FGF2 and allowed to attach for 1 day. Stoppers were removed, and the cells were allowed to migrate into the center of the well. Compounds tested in this study were diluted from a 10 mM stock in DMSO and were applied for 24 h. For single cell detection, cells were stained with H-33342 (1 µg/mL) and calcein-AM (0.5 µM) and imaged using a high content imaging microscope (Cellomics ArrayScanVTI, Thermo Fischer). Viability was assessed by counting the number of H-33342 and calcein double-positive cells outside the migration zone. Migration was detected by acquisition of the number of H-33342 and calcein double-positive cells in the migration area.

Data set [3] concerns differentiated LUHMES cells. The data set is classed as cell-based, human. The settings on record: at high concentrations, correlated with neurite degeneration. As for the experimental part: Suppl. Fig. 10. Migration of mitochondria in neurites. Mitochondrial migration was detected in fully differentiated (day 6 of differentiation, DoD6) mixed LUHMES cultures consisting of 3% eGFP/mito-tRFP-overexpressing LUHMES in 97% unlabeled LUHMES in order to allow tracking of mitochondria in single neurites in an environment of normal LUHMES cell density (Schildknecht et al. 2013, ALTEX 30(4):427-444). Single cell time lapse imaging was performed for a period of 90 s in intervals of 3 s with a Zeiss LSM 780 inverted fluorescence microscope YOKOGAWA CSU-XI spinning disk system using an EVOLVE camera (Carl Zeiss Group, Oberkochen, Germany) equipped with a 5% CO2 /37°C controlled chamber and a 40 x 1.3 NA oil objective. For image analysis, kymographs (graphical representation of spatial position over time) based on the data obtained from single cell time lapse experiments were created using ImageJ Software (NIH, Bethesda, USA). The neurite was manually defined by the segmented line tool. To calculate mitochondrial velocity, diagonal lines were drawn for each moving mitochondrium in the kymograph and analysed by calculating the slope with the macro-plugin Kymo Line ROI, generated by Felix Schöneberger, Bioimaging Center (BIC), University of Konstanz, Germany.
(1 picture or pasted object on this page, not shown here)

[4] abbreviates: concentrations as high as 100 µM.

The text below walks through data of paper PMC5225203, “Multiparameter toxicity assessment of novel DOPO-derived organophosphorus flame retardants” (Archives of Toxicology, 2016).

In the case of `O=[PH]1Oc2ccccc2-c2ccccc21` (stereo not drawn) [DOPO, 9,10-dihydro-9-oxa-10-phosphaphenanthrene-10-oxide], the “cell damage (viability, MTS reduction)” value in data set [1] is on record as “no signs of cell damage”. Moreover, in data set [2], the cell migration entry was “inhibited neither cell migration”. For the same molecule, in data set [2] (setting [4]), the “NCC migration and NCC viability” value is “influenced neither NCC migration nor NCC viability”.
For `O=P1(NCCNP2(=O)Oc3ccccc3-c3ccccc32)Oc2ccccc2-c2ccccc21` (stereo not drawn) [EDA-DOPO, 6,6′-(ethane-1,2-diylbis(azanediyl))bis(6H-dibenzo[c,e][1,2]oxaphosphinine-6-oxide)], the “cell damage (viability, MTS reduction)” value in data set [1] is “no signs of cell damage”. The cell migration entry in data set [2] is on record as “inhibited neither cell migration”. Moreover, in data set [2] (setting [4]), the “NCC migration and NCC viability” value is reported as “influenced neither NCC migration nor NCC viability”.
Consider `O=P1(OCCOP2(=O)Oc3ccccc3-c3ccccc32)Oc2ccccc2-c2ccccc21` (stereo not drawn) [EG-DOPO, 6,6′-(ethane-1,2-diylbis(oxy))bis(6H-dibenzo[c,e][1,2]oxaphosphinine-6-oxide)], for which the mitochondrial velocity result in data set [3] is given as “influenced mitochondrial velocity”. The “concentration producing acute toxicity” value in data set [1] is over 20 µM. Besides, in data set [2], the cell migration result is listed as “concentration-dependent declines”, the cell viability entry is reported as “concentration-dependent declines” and the “concentration range in which migration was far more affected than cell viability” value lay in the range of 30 to 60 µM.
`O=P1(NCCOP2(=O)Oc3ccccc3-c3ccccc32)Oc2ccccc2-c2ccccc21` (stereo not drawn) [ETA-DOPO, 6-(2-((6-oxido-6H-dibenzo[c,e][1,2]oxaphosphinin-6-yl)amino)ethoxy)-6H-dibenzo[c,e][1,2]oxaphosphinine 6-oxide]: the mitochondrial velocity result in data set [3] is reported as “influenced mitochondrial velocity”. Also, the “concentration producing acute toxicity” value in data set [1] is on record as over 20 µM. Moreover, in data set [2], the cell migration result is “concentration-dependent declines”, the cell viability entry was “concentration-dependent declines” and the “concentration range in which migration was far more affected than cell viability” value was 30 to 60 µM.
As to `Brc1ccc(Oc2cc(Br)c(Br)cc2Br)c(Br)c1` [PBDE-99, reference compound], in data set [3], the mitochondrial velocity entry is “influenced mitochondrial velocity”. Besides, the “cell damage (viability, MTS reduction)” value in data set [1] is given as “no signs of cell damage”. In addition, in data set [2], the cell migration result was “moderately, but significantly, inhibited” and the cell viability result is “did not reduce cell viability”. For the same molecule, the “viability of human NCCs” value in data set [2] (setting [4]) is reported as “did not reduce the viability”.
